pIC50: −log10 of the molar value. Where two headings read alike, the source gives them in different places. Positions of bridges follow the written chain, without caps; N, C: chain ends. Residues, ends and D or L forms follow the SMILES beside them.

Data on seven compounds can be found in article PMC6385813, “Macrocyclisation of small peptides enabled by oxetane incorporation” (Chemical Science, 2019).

The target of data set [1] is T1, porcine Aminopeptidase N (APN) (Sus scrofa, UniProt P15145).
T1 construct: aminopeptidase from porcine kidney (pAPN, Sigma Aldrich); purchased Sigma Aldrich; host or cells: porcine kidney (microsomal preparation)
T1 sequence (P15145 1-963): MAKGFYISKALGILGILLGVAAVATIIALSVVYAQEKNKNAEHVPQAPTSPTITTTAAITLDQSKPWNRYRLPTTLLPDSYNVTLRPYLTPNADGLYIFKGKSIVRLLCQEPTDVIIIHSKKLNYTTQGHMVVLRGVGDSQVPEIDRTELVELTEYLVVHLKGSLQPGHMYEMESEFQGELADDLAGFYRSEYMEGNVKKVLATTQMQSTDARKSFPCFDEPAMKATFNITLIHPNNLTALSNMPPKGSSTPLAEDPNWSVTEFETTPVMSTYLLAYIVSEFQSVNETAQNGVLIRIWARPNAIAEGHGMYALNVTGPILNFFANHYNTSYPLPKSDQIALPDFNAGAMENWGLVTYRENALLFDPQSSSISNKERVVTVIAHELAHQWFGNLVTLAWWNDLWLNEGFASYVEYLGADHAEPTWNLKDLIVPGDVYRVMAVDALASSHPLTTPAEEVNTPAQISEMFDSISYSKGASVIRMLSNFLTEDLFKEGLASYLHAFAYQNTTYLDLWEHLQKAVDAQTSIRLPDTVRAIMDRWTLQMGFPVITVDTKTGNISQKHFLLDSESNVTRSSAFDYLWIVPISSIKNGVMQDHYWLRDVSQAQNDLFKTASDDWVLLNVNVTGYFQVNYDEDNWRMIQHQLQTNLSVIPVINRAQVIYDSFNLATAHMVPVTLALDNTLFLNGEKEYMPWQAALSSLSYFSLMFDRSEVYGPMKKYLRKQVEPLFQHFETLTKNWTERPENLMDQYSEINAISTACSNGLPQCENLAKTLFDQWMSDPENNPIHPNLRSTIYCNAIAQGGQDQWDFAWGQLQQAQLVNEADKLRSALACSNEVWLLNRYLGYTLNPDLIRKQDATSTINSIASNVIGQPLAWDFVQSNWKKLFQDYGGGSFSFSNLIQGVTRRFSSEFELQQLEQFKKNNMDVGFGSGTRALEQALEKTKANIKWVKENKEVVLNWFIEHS
Kind of data set: porcine Aminopeptidase N inhibition, spectrophotometric. It counts as biochemical. The text has this:
Studies to explore the impact of oxetane modification on the bioactivity of the derived cyclic peptides were undertaken. cCNGRC (26) is known to target Aminopeptidase N (APN), a transmembrane zinc-dependent metalloprotease involved in a variety of processes, including blood pressure regulation, cell migration, viral uptake, cell survival, and angiogenesis.[18],[19] Both oxetane modified derivative 22 and cCNGRC (26) were examined for their inhibitory activity towards porcine APN using a spectrophotometric assay (Table 2).[19]
4. In vitro inhibition assay of aminopeptidase N with oxetane modified peptide 22 and parent
Peptide 26 was synthesised following a procedure by Piras et al.[10] using HCTU as coupling reagent and NMM as base. Oxidation was performed by on-resin cyclization as described for the biotin labelled […]
For the determination of IC50 values of oxetane modified peptide 22 and parent peptide 26, a protocol published by Piras et al.[10] was followed using L-leucine-p-nitroanilide as substrate and microsomal aminopeptidase from porcine kidney (pAPN, Sigma Aldrich) (18 units/mg protein). IC50 values were calculated by following the formation of p-nitroaniline. Formation of p-nitroaniline was monitored by measurement of the UV absorption at 405 nm on a Hidex Sense plate reader. […]

Data set [2] can be described thus: stability of oxetane to side-chain deprotection with TFA. To be noted: 70% TFA/20% CH2Cl2/10% TIS, 2.5 h (global side-chain deprotection including Arg Pbf). It counts as physicochemical. The text has this: Macrocyclisations not involving head-to-tail ring closure have also been examined. Specifically, the formation of disulphide containing macrocycles through oxidative cyclisation of cysteine side chains has been explored (Scheme 5). Treatment of 2, whose synthesis was described in Scheme 3, with iodine provided the 17-membered macrocycle by way of trityl deprotection and disulphide bond formation. Further reaction with TFA in the presence of the cation scavenger triisopropylsilane (TIS) facilitated removal of all the side chain protecting groups providing 22 after reverse-phase HPLC purification. […] Smaller 11- and 14-membered macrocycles 23 and 24 were also conveniently produced in good yields using this methodology.
[formula] Scheme 5 Oxetane modified cyclic peptides by disulphide bond formation.^a^,^b^aReagents and conditions: (a) I2 (3.0 equiv.), MeOH, 1 h; (b) 70% TFA/20% CH2Cl2/10% TIS, 2.5 h. ^bBond formed in macrocyclisation indicated in red. ^cTFA step omitted; yield in parenthesis for the cyclisation of linear peptide with C?O rather than oxetane in backbone. ^dData taken from [ref. 14].
Fmoc-Cys(Trt)-Asn(Trt)-GOx-Arg(Pbf)-Cys(Trt)-OtBu (2)
Diethylamine (1.0 mL) was added to a solution of Fmoc-GOx-Arg(Pbf)-Cys(Trt)-OtBu (127) […]
and the reaction mixture was stirred at room temperature for 1 h. […]

Data set [3] is described as follows: head-to-tail lactamisation of free linear peptides (H-/-OH), DEPBT (2 equiv), iPr2EtN (2 equiv). Particulars: DMF, 1.0 mM, 25.0 °C.

The term pIC50 denotes −log10 of the IC50, conventionally taken in molar units. For the compound `N=C(N)NCCC[C@@H]1NC2(CNC(=O)[C@H](CC(N)=O)NC(=O)[C@@H](N)CSSC[C@@H](C(=O)O)NC1=O)COC2` [Compound 22, Cyclo(H-Cys-Asn-GOx-Arg-Cys-OH)], the pIC50 in data set [1] (read-out: IC50) was 3.76. For the same compound, in data set [2], the “oxetane stability to acid” value is recorded as “survives the strongly acid conditions”. For `CC(C)C[C@@H]1NC(=O)[C@H](Cc2c[nH]c3ccccc23)NC(=O)CNC(=O)[C@H](C)NC1=O` [H-Trp-Leu-Ala-Gly-OH], the ring closure, isolated yield in data set [3] (from CC(C)C[C@H](NC(=O)[C@@H](N)Cc1c[nH]c2ccccc12)C(=O)N[C@@H](C)C(=O)NCC(=O)O, 12-membered ring, 48.0 h) came out at 21%.

Turning to `CC(C)C[C@@H]1NC(=O)[C@H](Cc2c[nH]c3ccccc23)NC(=O)CNC2(CNC1=O)COC2` [H-Trp-Leu-GOx-Gly-OH], the ring closure, isolated yield in data set [3] (from CC(C)C[C@H](NC(=O)[C@@H](N)Cc1c[nH]c2ccccc12)C(=O)NCC1(NCC(=O)O)COC1, 12-membered ring, 48.0 h) came out at 65%.

For `CC(C)C[C@@H]1NC(=O)[C@H](Cc2c[nH]c3ccccc23)NC(=O)CNC(=O)CNC1=O` [H-Trp-Leu-Gly-Gly-OH], in data set [3] (from CC(C)C[C@H](NC(=O)[C@@H](N)Cc1c[nH]c2ccccc12)C(=O)NCC(=O)NCC(=O)O, 12-membered ring, 48.0 h), the ring closure, isolated yield turned out to be 15%.

For the compound `CC(C)C[C@@H]1NC(=O)[C@H](Cc2ccc(O)cc2)NC(=O)[C@H](C)NC2(CNC(=O)[C@H](C)NC1=O)COC2` [H-Tyr-Leu-Ala-GOx-Ala-OH], in data set [3] (from CC(C)C[C@H](NC(=O)[C@@H](N)Cc1ccc(O)cc1)C(=O)N[C@@H](C)C(=O)NCC1(N[C@@H](C)C(=O)O)COC1, 15-membered ring, 24.0 h), the ring closure, isolated yield is 31%. On to `CC(C)C[C@@H]1NC(=O)[C@H](Cc2ccc(O)cc2)NC(=O)[C@H](C)NC(=O)CNC(=O)[C@H](C)NC1=O` [H-Tyr-Leu-Ala-Gly-Ala-OH], for which, in data set [3] (from CC(C)C[C@H](NC(=O)[C@@H](N)Cc1ccc(O)cc1)C(=O)N[C@@H](C)C(=O)NCC(=O)N[C@@H](C)C(=O)O, 15-membered ring), the ring closure, isolated yield was 24%. In the case of `N=C(N)NCCC[C@@H]1NC(=O)CNC(=O)[C@H](CC(N)=O)NC(=O)[C@@H](N)CSSC[C@@H](C(=O)O)NC1=O` [cCNGRC (26), reference compound] (H-CNGRC-OH; disulfide 1-5), the pIC50 in data set [1] was 3.67.
